How the values were obtained:
Test in all cases: Kinase selectivity, scanMAX Kinase assay panel (DiscoverX), % control at 1 uM
Type in all cases: binding
[1] = target: T1, scanMAX Kinase assay panel (Homo sapiens, UniProt Q9NRP7); settings: STK36; 1 uM; read-out: Percent Control (%)
T1 construct: purchased DiscoverX
T1 sequence (Q9NRP7 1-1315): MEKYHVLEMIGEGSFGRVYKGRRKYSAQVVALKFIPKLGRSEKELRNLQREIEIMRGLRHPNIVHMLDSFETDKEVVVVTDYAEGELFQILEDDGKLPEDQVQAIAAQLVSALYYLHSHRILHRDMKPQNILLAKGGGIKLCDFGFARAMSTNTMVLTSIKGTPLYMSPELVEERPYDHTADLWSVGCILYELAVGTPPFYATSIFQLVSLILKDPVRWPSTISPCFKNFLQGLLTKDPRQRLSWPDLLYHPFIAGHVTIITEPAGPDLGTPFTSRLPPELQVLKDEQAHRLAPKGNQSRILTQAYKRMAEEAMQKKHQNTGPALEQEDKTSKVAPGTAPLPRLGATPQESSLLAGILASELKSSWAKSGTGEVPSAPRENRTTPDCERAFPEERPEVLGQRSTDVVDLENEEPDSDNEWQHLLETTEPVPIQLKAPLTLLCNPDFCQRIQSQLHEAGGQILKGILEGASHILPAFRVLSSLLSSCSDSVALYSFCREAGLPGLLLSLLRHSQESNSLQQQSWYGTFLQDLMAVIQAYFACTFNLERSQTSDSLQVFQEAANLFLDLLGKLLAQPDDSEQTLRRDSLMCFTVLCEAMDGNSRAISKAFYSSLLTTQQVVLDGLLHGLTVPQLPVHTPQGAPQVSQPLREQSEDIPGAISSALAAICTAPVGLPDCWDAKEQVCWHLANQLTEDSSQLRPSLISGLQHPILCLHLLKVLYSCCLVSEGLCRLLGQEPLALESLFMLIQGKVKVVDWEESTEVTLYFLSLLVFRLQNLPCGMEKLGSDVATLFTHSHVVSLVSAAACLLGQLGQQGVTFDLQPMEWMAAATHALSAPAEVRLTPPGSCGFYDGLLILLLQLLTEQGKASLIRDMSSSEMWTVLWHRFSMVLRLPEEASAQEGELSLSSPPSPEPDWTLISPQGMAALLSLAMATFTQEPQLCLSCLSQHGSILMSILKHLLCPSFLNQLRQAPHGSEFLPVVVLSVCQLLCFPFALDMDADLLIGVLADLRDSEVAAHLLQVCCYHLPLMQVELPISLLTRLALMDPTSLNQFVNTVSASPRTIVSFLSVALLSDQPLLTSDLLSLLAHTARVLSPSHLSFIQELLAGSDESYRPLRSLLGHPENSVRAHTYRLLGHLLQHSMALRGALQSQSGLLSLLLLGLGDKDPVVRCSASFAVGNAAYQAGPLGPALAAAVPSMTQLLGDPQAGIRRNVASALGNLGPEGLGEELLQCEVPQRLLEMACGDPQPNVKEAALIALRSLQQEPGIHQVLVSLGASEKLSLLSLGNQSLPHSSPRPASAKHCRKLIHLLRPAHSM
Method in brief: (§1)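 Read-out is percent of control, derived from the signal with compound relative to positive and negative controls: (compound − positive)/(negative − positive) × 100. Each enzyme received test drug at 1 uM in DMSO, and values under 35% count as active.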

[2] = target: T2, scanMAX Kinase assay panel (Homo sapiens, UniProt Q92772); settings: CDKL2; 1 uM; read-out: Percent Control (%)
T2 construct: purchased DiscoverX
T2 sequence (Q92772 1-493): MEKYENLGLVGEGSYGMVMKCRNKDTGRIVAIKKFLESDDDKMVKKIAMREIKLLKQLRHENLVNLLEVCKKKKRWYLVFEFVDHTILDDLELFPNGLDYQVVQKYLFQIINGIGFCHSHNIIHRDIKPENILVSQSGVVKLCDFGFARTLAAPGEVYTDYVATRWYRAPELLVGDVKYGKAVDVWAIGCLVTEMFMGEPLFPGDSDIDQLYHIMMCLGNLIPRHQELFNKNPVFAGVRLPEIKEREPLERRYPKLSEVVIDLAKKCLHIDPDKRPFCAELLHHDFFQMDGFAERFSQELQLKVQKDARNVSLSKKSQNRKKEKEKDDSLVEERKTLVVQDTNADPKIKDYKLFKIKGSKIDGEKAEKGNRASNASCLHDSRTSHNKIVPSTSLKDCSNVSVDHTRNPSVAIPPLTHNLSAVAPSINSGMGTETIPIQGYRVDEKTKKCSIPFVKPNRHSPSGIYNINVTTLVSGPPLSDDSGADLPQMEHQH
Method in brief: as §1

[3] = target: T3, scanMAX Kinase assay panel (Homo sapiens, UniProt Q13523); settings: PRP4; 1 uM; read-out: Percent Control (%)
T3 construct: purchased DiscoverX
Method in brief: as §1

[4] = target: T4, scanMAX Kinase assay panel (Homo sapiens, UniProt Q86V86); settings: PIM3; 1 uM; read-out: Percent Control (%)
T4 construct: purchased DiscoverX
Method in brief: as §1

T3 sequence (Q13523 whole entry): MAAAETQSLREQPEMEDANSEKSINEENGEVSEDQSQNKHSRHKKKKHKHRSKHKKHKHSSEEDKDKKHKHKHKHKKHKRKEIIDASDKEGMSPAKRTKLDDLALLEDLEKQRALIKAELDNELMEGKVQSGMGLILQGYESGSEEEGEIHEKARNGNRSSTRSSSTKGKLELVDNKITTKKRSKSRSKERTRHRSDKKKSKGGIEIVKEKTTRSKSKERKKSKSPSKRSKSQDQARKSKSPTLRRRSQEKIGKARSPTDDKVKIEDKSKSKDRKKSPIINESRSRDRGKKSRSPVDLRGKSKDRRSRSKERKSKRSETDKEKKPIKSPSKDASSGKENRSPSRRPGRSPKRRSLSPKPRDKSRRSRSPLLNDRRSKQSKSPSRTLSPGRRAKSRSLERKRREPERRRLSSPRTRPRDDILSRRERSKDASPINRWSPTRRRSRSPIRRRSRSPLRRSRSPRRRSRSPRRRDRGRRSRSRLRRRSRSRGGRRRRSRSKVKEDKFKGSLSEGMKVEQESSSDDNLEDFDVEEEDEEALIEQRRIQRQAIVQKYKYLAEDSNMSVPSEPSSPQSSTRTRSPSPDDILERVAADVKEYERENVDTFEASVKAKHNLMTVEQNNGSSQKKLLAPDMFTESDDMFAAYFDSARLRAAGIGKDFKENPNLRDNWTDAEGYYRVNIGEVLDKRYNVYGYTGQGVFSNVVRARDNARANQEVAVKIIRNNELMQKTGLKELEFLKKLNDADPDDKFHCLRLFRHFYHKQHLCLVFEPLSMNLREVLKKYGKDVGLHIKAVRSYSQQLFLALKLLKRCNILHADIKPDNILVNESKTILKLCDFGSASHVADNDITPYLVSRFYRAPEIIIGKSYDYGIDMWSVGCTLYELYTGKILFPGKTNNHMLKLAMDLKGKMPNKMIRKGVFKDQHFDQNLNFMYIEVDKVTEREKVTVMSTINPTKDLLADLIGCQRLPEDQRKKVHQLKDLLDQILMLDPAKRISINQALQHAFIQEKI

SMILES: Cc1ccc(NC(=O)C2(C(=O)Nc3ccc(F)cc3)CC2)cc1C#Cc1cnc2c(Nc3cnn(C(C)C)c3)cccn12 [Example 78]
- remaining binding at 1 µM [1]: 100%
- remaining binding at 1 µM [2]: 94%
- remaining binding at 1 µM [3]: 100%
- remaining binding at 1 µM [4]: 100%

SMILES: Cc1cn(-c2cc(NC(=O)c3ccc(C)c(C#Cc4cnc5c(Nc6cnn(C)c6)cccn45)c3)cc(C(F)(F)F)c2)cn1 [Example 12, 4-methyl-N-(3-(4-methyl-1H-imidazol-1-yl)-5-(trifluoromethyl)phenyl)-3-((8-((1-methyl-1H-pyrazol-4-yl)amino)imidazo[1,2-a]pyridin-3-yl)ethynyl)benzamide]
- remaining binding at 1 µM [1]: 89%
- remaining binding at 1 µM [2]: 55%
- remaining binding at 1 µM [3]: 95%
- remaining binding at 1 µM [4]: 90%

SMILES: Cc1ccc(C(=O)Nc2ccc(CN3CCN(C)CC3)c(C(F)(F)F)c2)cc1C#Cc1cnc2c(Nc3cnn(C)c3)cccn12 [Example 1, 4-methyl-3-((8-((1-methyl-1H-pyrazol-4-yl)amino)imidazo[1,2-a]pyridin-3-yl)ethynyl)-N-(4-((4-methylpiperazin-1-yl)methyl)-3-(trifluoromethyl)phenyl)benzamide]
- remaining binding at 1 µM [1]: 1%
- remaining binding at 1 µM [2]: 0%
- remaining binding at 1 µM [3]: 89%
- remaining binding at 1 µM [4]: 88%

Source: US10870647B2, “Imidazopyridine derivative, method for preparing same, and pharmaceutical composition containing same as active ingredient for preventing or treating cancer” (DAEGU-GYEONGBUK MEDICAL INNOVATION FOUNDATION, priority 2016, dated 2020)
